Data reported in patent publication US5969017A, “Methods of treating or preventing cardiac arrhythmia” (Merck & Co., Inc., priority 1997, dated 1999).
Read-outs that look alike come from different tables or passages of the source.

Molecular target: T1, IKur in human atrial myocytes (Homo sapiens, UniProt P22460)
T1 construct: Human myocytes were isolated from specimens of right atrial appendage obtained from patients; endogenous in cells; host or cells: human atrial myocytes from right atrial appendage of patients undergoing cardiopulmonary bypass
Assay: Voltage clamp measurement of IKur block (rested state, use-dependent, rate-dependent) in human atrial myocytes
Format: cell-based
Conditions: for inhibition at 0.03 µM / inhibition at 0.1 µM / Rate-Dpdnt Ratio / Use-Dpdnt Ratio / inhibition at 0.3 µM / inhibition at 1 µM: human atria; for Rate-Dpdnt Ratio: 3 Hz vs 1 Hz, last pulse, <1 = rate-dependent; for Use-Dpdnt Ratio: 10th vs 1st pulse @ 1 Hz, <1 = use-dependent; for selective blockade of IKur (in words): relative to other cardiac K+ channels
Source text: B. Measurement of IKur in Human Atrial Myocytes
Isolation of Human Atrial Myocytes:
Human myocytes were isolated from specimens of right atrial appendage obtained from patients undergoing cardiopulmonary bypass, using a modification of the procedure described by Fermini B, Wang Z, Duan D and Nattel S., "Differences in rate dependence of transient outward current in rabbit and human atrium" Am. J. Physiol. […] All tissues were collected in accordance with Temple University School of Medicine Institutional guidelines. […] Tissue samples were quickly immersed in cold (0-4° C.) cardioplegia solution containing (in mM/L): 50 KH2 PO4, 8 MgSO4, 10 NaHCO3, 5 adenosine, 25 taurine, 140 glucose, and 100 mannitol, pH 7.4 and bubbled with 100% O2. […] The tissue was gently agitated by continuous bubbling with 100% O2 for 5 min. […] The supernatant was removed after 40 min and discarded. The chunks were then incubated in a solution of the same ionic composition but supplemented with only collagenase and […]. Microscopic examination of the medium was performed every 10-20 min to determine the number and quality of isolated cells. When the yield appeared maximal, the tissue chunks were suspended in a modified Kraftbruhe solution containing (in mM/L): 25 KCl, 10 KH2 PO4, 25 taurine, 0.5 EGTA, 22 glucose, 55 glutamic acid, and 0.1% bovine albumin, pH 7.3 (22-24° C.) and gently triturated using a large bore Pasteur pipette. The supernatant was collected in a 50 ml centrifuge tube. […] Cells were used within 2-24 hr after isolation.
A small aliquot of the solution containing the isolated human atrial myocytes was placed in a 1-ml chamber mounted on the stage of an inverted microscope. Five minutes were allowed for cell adhesion to the bottom of the chamber. To record IKur, human atrial myocytes were superfused with a solution of the same ionic composition as that used for Kv1.5. An alternative external solution was sometimes used in which NaCl was replaced with NMDG (formal name: N-methyl-d-glucamine) to inhibit INa.
Currents were elicited by 150 ms depolarizing test pulses to +40 mV from a holding potential of -50 mV to inactivate Ito and INa. The amplitude of IKur was measured as the amplitude of the time-dependentcurrent at the end of the test pulse, relative to the holding current level. […] All experiments were performed at room temperature (22-24° C.).
C. Measurement of Use-Dependent and Rate-Dependent Block.
Pulses were applied in 10 second long trains delivered after 30 second rest intervals at frequencies of 1 Hz (10 pulses) or 3 Hz (30 pulses). Percent block of the current is defined as the % decrease in the current amplitude produced by an agent during a given pulse relative to the control current amplitude for that pulse. Rested-state block is the block of the current during the first pulse in a train following the 30 sec rest period. Use-dependent block is block that occurs to a progessively greater extent with each successive depolarization in a train or sequence of pulses or depolarizations delivered at a given rate or frequency. Thus, during a train of 10 depolarizations at frequency of 1 Hz, use-dependent block is assessed as the ratio of the amount of block for the 10th pulse relative to block for the 1st pulse (rested state block) of the train. Rate-dependent block is block that occurs to a greater extent or preferentially at faster rates of depolarization or heart rates. Thus, rate-dependent block is assessed as the ratio of the amount of block of the current during the last pulse of the 10 sec train at 3 Hz vs. 1 Hz. Consequently, ratios of less than one (<1) are indicative of use-dependentand rate-dependent block and the lower the ratio the greater the degree of use and rate dependence.

[1] = 30 nM, 1st pulse @ 1 Hz, +40 mV from -50 mV, read-out: Average % Block, Rested State, 1st pulse
[2] = 30 nM, 10th pulse @ 1 Hz, read-out: Average % Block, Use-Dpdnt, 10th pulse
[3] = 30 nM, 30th pulse @ 3 Hz, read-out: Average % Block, Rate-Dpdnt, 30th pulse
[4] = 100 nM, 1st pulse @ 1 Hz, read-out: Average % Block, Rested State, 1st pulse
[5] = 100 nM, 10th pulse @ 1 Hz, read-out: Average % Block, Use-Dpdnt, 10th pulse
[6] = 100 nM, 30th pulse @ 3 Hz, read-out: Average % Block, Rate-Dpdnt, 30th pulse

T1 sequence (P22460 whole entry): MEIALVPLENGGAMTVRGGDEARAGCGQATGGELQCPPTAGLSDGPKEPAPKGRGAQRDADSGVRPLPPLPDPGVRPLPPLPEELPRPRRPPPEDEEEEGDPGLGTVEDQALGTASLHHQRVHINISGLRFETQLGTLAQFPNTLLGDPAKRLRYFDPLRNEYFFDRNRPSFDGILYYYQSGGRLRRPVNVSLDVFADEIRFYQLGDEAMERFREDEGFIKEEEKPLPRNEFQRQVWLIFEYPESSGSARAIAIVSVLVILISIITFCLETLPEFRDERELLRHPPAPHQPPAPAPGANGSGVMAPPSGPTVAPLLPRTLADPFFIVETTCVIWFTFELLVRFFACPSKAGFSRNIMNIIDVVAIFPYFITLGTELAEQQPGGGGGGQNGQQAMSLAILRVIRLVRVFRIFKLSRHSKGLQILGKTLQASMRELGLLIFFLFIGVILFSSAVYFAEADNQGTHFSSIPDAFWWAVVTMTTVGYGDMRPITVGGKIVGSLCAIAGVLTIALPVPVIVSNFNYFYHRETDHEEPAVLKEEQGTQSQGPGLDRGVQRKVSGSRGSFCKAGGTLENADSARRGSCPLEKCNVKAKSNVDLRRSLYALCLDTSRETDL

Row | inhibition at 0.03 µM [1] | inhibition at 0.03 µM [2] | inhibition at 0.03 µM [3] | inhibition at 0.1 µM [4] | inhibition at 0.1 µM [5] | inhibition at 0.1 µM [6] | use-dependent block of IKur (in words) (human atrial myocytes) | Rate-Dpdnt Ratio (100 nM) | Use-Dpdnt Ratio (100 nM) | selective blockade of IKur (in words) (human atrial myocytes) | SMILES | also measured
1 | 21.9% | 33% | 48.4% | 35.6% | 59.7% | 75.7% | use-dependentblockade |  |  |  | CC1CCC(C(C)C)C(P(=O)(c2ccccc2)c2ccccc2)C1 (stereo not drawn) [A, (2-Isopropyl-5-methylcyclohexyl)diphenylphosphine oxide] | rate-dependent block of IKur (in words) (human atrial myocytes): strong rate-dependent profile; use-dependent block of IKur (in words) (human atrial myocytes, listed as (2-isopropyl-5-methylcyclohexyl)diphenyl-phosphine oxide): strong use-dependent profile
2 |  |  |  | 10.4% | 17.8% | 11.6% | use-dependentblockade | 1.53 | 0.58 | selective blockade | Cc1cc(C)c(CP(=O)(c2ccccc2)c2ccccc2)c(-c2ccc(F)c(C)c2)c1 [B, 2-(Diphenylphosphinylmethyl)-4'-fluoro-3,5,3'-trimethyl-biphenyl] | inhibition at 0.3 µM (300 nM, 1st pulse @ 1 Hz, read-out: Average % Block, Rested State, 1st pulse): 25.8%; Rate-Dpdnt Ratio (300 nM): 0.93; inhibition at 0.3 µM (300 nM, 10th pulse @ 1 Hz, read-out: Average % Block, Use-Dpdnt, 10th pulse): 31.3%; Use-Dpdnt Ratio (300 nM): 0.82; inhibition at 0.3 µM (300 nM, 30th pulse @ 3 Hz, read-out: Average % Block, Rate-Dpdnt, 30th pulse): 33.8%
3 | 35.7% | 43.2% | 42.9% | 63.8% | 67.9% | 60.1% | use-dependentblockade | 1.13 | 0.94 | selective blockade | COc1ccc(-n2nc(Sc3ccc(Cl)cc3)c(C)c(C#N)c2=O)cc1 [C, 6-(4-Chlorophenylthio)-2-(4-methoxyphenyl)-5-methyl-3-oxo-2,3-dihydropyridazine-4-carbonitrile] | Rate-Dpdnt Ratio (30 nM): 1.01; Use-Dpdnt Ratio (30 nM): 0.83; IC50 (first pulse of 10 at 1 Hz, +40 mV from -50 mV, read-out: Rested State IC50, IKur in Human Atrium): 130 nM
4 |  |  |  | 61% | 68% |  | use-dependentblockade |  | 0.90 | selective blockade | COc1ccc(-n2nc(Sc3ccc(C)cc3)c(C)c(C#N)c2=O)cc1 [D] | inhibition at 1 µM (1000 nM, 1st pulse @ 1 Hz, read-out: Average % Block, Rested State, 1st pulse): 81.7%; inhibition at 1 µM (1000 nM, 10th pulse @ 1 Hz, read-out: Average % Block, Use-Dpdnt, 10th pulse): 80%; Use-Dpdnt Ratio (1000 nM): 1.02
